The test has as its system M. tuberculosis. The test can be described thus: MIC of drugs alone and in combination (synergy test). The settings on record: for change of MIC when tested together: combination Ethambutol + Isoniazid (negative control, FIG. 2); for MIC: Mycobacterium tuberculosis, drug tested alone, read-out: individual MIC. Format: cell-based, Mycobacterium tuberculosis. The method, then: A sulfonylurea ALS inhibitor and a triazolopyrimidine ALS inhibitor were tested alone and in combination with Rifampicin. The positive controls used were Isoniazid and Streptomycin where one finds a synergistic action. The individual MICs of Isoniazid (INH) and Streptomycin (Strep) are 0.03 and 1.0 μg/ml respectively. When used in combination, these values drop to 0.0075 and 0.12 μg/ml respectively (cf. FIG. 1). This is 4 fold and 8 fold less.
The negative control used was a combination of Ethambutol (Etham) and Isoniazid (Inh) where there is no synergistic activity. […] In. Clinical Microbiology Procedures Handbook; Vol. 1-2 by Isenberg, Henry. D. Ed Washington D.C.; American Society for Microbiology/1992; Pages 5.18.1 to 5.18.28).

Where [1] appears, read: combination Isoniazid + Streptomycin.
The mark [2] stands for this setting: combination Isoniazid + Streptomycin (positive control, FIG. 1).

Each structure is given as a SMILES string. Read-outs that look alike come from different tables or passages of the source.

Data on 4 compounds can be found in US20070275982A1, “METHOD” (ASTRAZENECA AB, priority 2006, published 2007).

One may read the MIC as the smallest concentration in the dilution series that meets the test's criterion for growth inhibition.

For the compound `CC[C@@H](CO)NCCN[C@@H](CC)CO` [Ethambutol], the “change of MIC when tested together” value is “do not drop significantly”.

As for `NNC(=O)c1ccncc1` [Isoniazid], the minimal inhibitory concentration (MIC) is 0.03 µg/mL and the “change of MIC when tested together” value is reported as “do not drop significantly”. Besides, the “fold drop of MIC in combination vs individual MIC” value (“fold drop of MIC in combination” below) under setting [1] amounted to 4 fold. Also, the “MIC when used in combination” value under setting [2] was 0.0075 µg/mL.

As for `CO[C@H]1/C=C/O[C@@]2(C)Oc3c(C)c(O)c4c(O)c(c(/C=N/N5CCN(C)CC5)c(O)c4c3C2=O)NC(=O)/C(C)=C\C=C\[C@H](C)[C@H](O)[C@@H](C)[C@@H](O)[C@@H](C)[C@H](OC(C)=O)[C@@H]1C` [Rifampicin], the minimum inhibitory concentration (MIC) was found to be 0.03 µg/mL. Further, for the setting “Rifampicin/TP experiment (FIG. 4)”, the MIC was determined as 0.015 µg/mL. The “fold drop of MIC in combination” value (combination Rifampicin + SU) was found to be 8 fold. Also, the “fold drop of MIC in combination” value (combination Rifampicin + TP) is 4 fold. Also, the “MIC when used in combination” value (combination Rifampicin + sulphonylurea compound (SU), FIG. 3) is 0.0038 µg/mL. Further, for the setting “combination Rifampicin + triazolopyrimidine compound (TP), FIG. 4”, the “MIC when used in combination” value came to 0.0038 µg/mL.

For `[H]/N=C(/N)N[C@H]1[C@H](O)[C@@H](O)[C@H](O[C@@H]2O[C@@H](C)[C@](O)(C=O)[C@H]2O[C@@H]2O[C@@H](CO)[C@H](O)[C@@H](O)[C@@H]2NC)[C@@H](N/C(N)=N\[H])[C@@H]1O` [Streptomycin], the minimal inhibitory concentration (MIC) was determined as 1 µg/mL. Moreover, the “fold drop of MIC in combination” value under setting [1] is 8 fold. Moreover, under setting [2], the “MIC when used in combination” value came out at 0.12 µg/mL.
